# US20020137929A1, “1 - (3-heterocyclylphenyl) isothiourea, -isourea, -guanidine and -amidine herbicidal agents” (Intellectual Property Department, BASF Aktiengesellschaft, priority 1998, published 2002)
# Columns and labels:
# [1] = test system: TRZAWR (Wheat, Winter, cv Riband); experiment: Postemergence herbicidal evaluation; type: in vivo, Triticum aestivum; conditions: postemergence
# In short: (§1)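 Young plants, roughly two weeks from seeding, receive the active ingredient as a sprayed dispersion (acetone/water 50/50, 0.5% TWEEN 20) at 40 psi. Doses span about 0.0156 to 0.500 kg/ha. A visual score from 0 to 9 compares treated with control plants four to five weeks on.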
# [2] = test system: SETVI (Foxtail, Green); experiment: Postemergence herbicidal evaluation; type: in vivo, Setaria viridis; conditions: postemergence
# In short: as §1
# [3] = test system: ABUTH (Velvetleaf); experiment: Preemergence herbicidal evaluation; type: in vivo, Abutilon theophrasti; conditions: rated 4-5 weeks after treatment
# In short: (§2)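 Visual 0-9 rating vs control (stand, vigor, malformation, size, chlorosis, overall appearance), scored 4-5 wk after spraying. Seeded soil cups were treated preemergence with compound in aqueous acetone, ~0.0156-0.500 kg/ha equivalent.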
# [4] = test system: CYPIR (Rice Flatsedge); experiment: Postemergence weed control under flooded paddy conditions; type: in vivo, Cyperus iria; conditions: postemergence weeds, rated 3 to 4 weeks after treatment
# In short: (§3)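 Injury ratings (0–9 scale covering stand, vigor, malformation, size, chlorosis and overall appearance versus control) were made three to four weeks after treatment. Test material, about 0.0313 to 0.500 kg/ha a.i. in 50/50 v/v aqueous/acetone, was added to flood water 1.5 to 3 cm deep over 3 to 5 cm weeds and 1.5 to 2.5 leaf rice.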
# [5] = test system: SAGPY (Arrowhead (Pygmaea)); experiment: Preemergence weed control under flooded paddy conditions; type: in vivo, Sagittaria pygmaea; conditions: rated 3-4 weeks after treatment
# In short: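 Silt loam, seeds in top 0.5 cm; flood held 1.5-3 cm; test cpd as acetone/water 50/50 into flood water, ~0.0313-0.500 kg/ha a.i.; greenhouse 3-4 wk; visual 0-9 score vs control.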
# [6] = test system: CASOB (Sicklepod); experiment: Preemergence herbicidal evaluation; type: in vivo, Cassia obtusifolia; conditions: rated 4-5 weeks after treatment
# In short: as §2
# [7] = test system: ORYSAT (Rice, Tebonnet); experiment: Postemergence herbicidal evaluation; type: in vivo, Oryza sativa, (L.) Tebonnet; conditions: postemergence
# In short: as §1
# [8] = test system: SETVI (Foxtail, Green); experiment: Preemergence herbicidal evaluation; type: in vivo, Setaria viridis; conditions: rated 4-5 weeks after treatment
# In short: as §2
# [9] = test system: ABUTH (Velvetleaf); experiment: Postemergence herbicidal evaluation; type: in vivo, Abutilon theophrasti; conditions: postemergence
# In short: as §1
# [10] = test system: ECHCG (Barnyardgrass); experiment: Postemergence herbicidal evaluation; type: in vivo, Echinochloa crus-galli; conditions: postemergence
# In short: as §1
# [11] = test system: SAGPY (Arrowhead (Pygmaea)); experiment: Postemergence weed control under flooded paddy conditions; type: in vivo, Sagittaria pygmaea; conditions: postemergence weeds, rated 3 to 4 weeks after treatment
# In short: as §3
# [12] = test system: GLXMAW (Soybean, Williams); experiment: Postemergence herbicidal evaluation; type: in vivo, Glycine max, (L.) Merr. cv Williams; conditions: postemergence
# In short: as §1
# [13] = test system: AMBEL (Ragweed, Common); experiment: Postemergence herbicidal evaluation; type: in vivo, Ambrosia artemisifolia; conditions: postemergence
# In short: as §1
structure (smiles),measurement,setting,value
"CCOC(=O)[C@H](C)N1C(=O)CSC1=Nc1cc(-n2c(=O)cc(C(F)(F)F)n(C)c2=O)c(F)cc1Cl [Compound 76, Ethyl 2-{{2-chloro-5-[3,6-dihydro-3-methyl-2,6-dioxo-4-(trifluoromethyl)-1(2H)-pyrimidinyl]-4-fluorophenyl}imino}-α-methyl-4-oxo-3-thiazolidineacetate, L-]",TRZAWR herbicidal rating,[1]; rate 0.0158 kg/ha,3.5
same,TRZAWR herbicidal rating,[1]; rate 0.0315 kg/ha,5.0
same,TRZAWR herbicidal rating,[1]; rate 0.0630 kg/ha,5.5
same,SETVI herbicidal rating,[2]; rate 0.0158 kg/ha,1.0
same,SETVI herbicidal rating,[2]; rate 0.0315 kg/ha,2.0
same,SETVI herbicidal rating,[2]; rate 0.0630 kg/ha,9.0
same,Preemergence herbicidal rating ABUTH,[3]; rate 0.0156 kg/ha,1.0
same,Preemergence herbicidal rating ABUTH,[3]; rate 0.0313 kg/ha,1.0
same,Preemergence herbicidal rating ABUTH,[3]; rate 0.0625 kg/ha,9.0
same,Preemergence herbicidal rating ABUTH,[3]; rate 0.1250 kg/ha,9.0
same,Preemergence herbicidal rating ABUTH,[3]; rate 0.2500 kg/ha,9.0
same,Herbicidal rating CYPIR,[4]; Rate 0.0313 kg/ha,0.0
same,Herbicidal rating CYPIR,[4]; Rate 0.0625 kg/ha,0.0
same,Herbicidal rating CYPIR,[4]; Rate 0.1250 kg/ha,0.0
same,Herbicidal rating CYPIR,[4]; Rate 0.2500 kg/ha,6.0
same,SAGPY herbicidal effect rating,[5]; 0.0313 kg/ha,0.0
same,SAGPY herbicidal effect rating,[5]; 0.0625 kg/ha,0.0
same,SAGPY herbicidal effect rating,[5]; 0.1250 kg/ha,4.0
same,SAGPY herbicidal effect rating,[5]; 0.2500 kg/ha,4.0
same,Preemergence herbicidal rating CASOB,[6]; rate 0.0156 kg/ha,0.0
same,Preemergence herbicidal rating CASOB,[6]; rate 0.0313 kg/ha,0.0
same,Preemergence herbicidal rating CASOB,[6]; rate 0.0625 kg/ha,0.0
same,Preemergence herbicidal rating CASOB,[6]; rate 0.1250 kg/ha,0.0
same,Preemergence herbicidal rating CASOB,[6]; rate 0.2500 kg/ha,1.0
same,ORYSAT herbicidal rating,[7]; rate 0.0158 kg/ha,3.0
same,ORYSAT herbicidal rating,[7]; rate 0.0315 kg/ha,4.0
same,ORYSAT herbicidal rating,[7]; rate 0.0630 kg/ha,5.0
same,Preemergence herbicidal rating SETVI,[8]; rate 0.0156 kg/ha,0.0
same,Preemergence herbicidal rating SETVI,[8]; rate 0.0313 kg/ha,6.0
same,Preemergence herbicidal rating SETVI,[8]; rate 0.0625 kg/ha,7.0
same,Preemergence herbicidal rating SETVI,[8]; rate 0.1250 kg/ha,9.0
same,Preemergence herbicidal rating SETVI,[8]; rate 0.2500 kg/ha,9.0
same,ABUTH herbicidal rating,[9]; rate 0.0158 kg/ha,9.0
same,ABUTH herbicidal rating,[9]; rate 0.0315 kg/ha,9.0
same,ABUTH herbicidal rating,[9]; rate 0.0630 kg/ha,9.0
same,ECHCG herbicidal rating,[10]; rate 0.0158 kg/ha,1.0
same,ECHCG herbicidal rating,[10]; rate 0.0315 kg/ha,1.0
same,ECHCG herbicidal rating,[10]; rate 0.0630 kg/ha,2.0
same,Herbicidal rating SAGPY,[11]; Rate 0.0313 kg/ha,0.0
same,Herbicidal rating SAGPY,[11]; Rate 0.0625 kg/ha,0.0
same,Herbicidal rating SAGPY,[11]; Rate 0.1250 kg/ha,4.0
same,Herbicidal rating SAGPY,[11]; Rate 0.2500 kg/ha,4.0
same,GLXMAW herbicidal rating,[12]; rate 0.0158 kg/ha,4.0
same,GLXMAW herbicidal rating,[12]; rate 0.0315 kg/ha,5.5
same,GLXMAW herbicidal rating,[12]; rate 0.0630 kg/ha,6.0
same,AMBEL herbicidal rating,[13]; rate 0.0158 kg/ha,9.0
same,AMBEL herbicidal rating,[13]; rate 0.0315 kg/ha,9.0
same,AMBEL herbicidal rating,[13]; rate 0.0630 kg/ha,9.0
"COC(=O)[C@H](Cc1ccc([N+](=O)[O-])cc1)N1C(=O)CSC1=Nc1cc(-n2c(=O)cc(C(F)(F)F)n(C)c2=O)c(F)cc1Cl [Compound 78, Methyl 2-{{2-chloro-5-[3,6-dihydro-3-methyl-2,6-dioxo-4-(trifluoromethyl)-1(2H)-pyrimidinyl]-4-fluorophenyl}imino}-4-oxo-α-(p-nitrobenzyl)-3-thiazolidineacetate, L-]",TRZAWR herbicidal rating,[1]; rate 0.0158 kg/ha,3.0
same,TRZAWR herbicidal rating,[1]; rate 0.0315 kg/ha,3.5
same,TRZAWR herbicidal rating,[1]; rate 0.0630 kg/ha,3.5
same,SETVI herbicidal rating,[2]; rate 0.0158 kg/ha,1.0
same,SETVI herbicidal rating,[2]; rate 0.0315 kg/ha,1.0
same,SETVI herbicidal rating,[2]; rate 0.0630 kg/ha,1.0
same,Preemergence herbicidal rating ABUTH,[3]; rate 0.0156 kg/ha,0.0
same,Preemergence herbicidal rating ABUTH,[3]; rate 0.0313 kg/ha,0.0
same,Preemergence herbicidal rating ABUTH,[3]; rate 0.0625 kg/ha,0.0
same,Preemergence herbicidal rating ABUTH,[3]; rate 0.1250 kg/ha,2.0
same,Preemergence herbicidal rating ABUTH,[3]; rate 0.2500 kg/ha,9.0
same,Herbicidal rating CYPIR,[4]; Rate 0.0313 kg/ha,5.0
same,Herbicidal rating CYPIR,[4]; Rate 0.0625 kg/ha,5.0
same,Herbicidal rating CYPIR,[4]; Rate 0.1250 kg/ha,6.0
same,Herbicidal rating CYPIR,[4]; Rate 0.2500 kg/ha,9.0
same,SAGPY herbicidal effect rating,[5]; 0.0313 kg/ha,0.0
same,SAGPY herbicidal effect rating,[5]; 0.0625 kg/ha,0.0
same,SAGPY herbicidal effect rating,[5]; 0.1250 kg/ha,2.0
same,SAGPY herbicidal effect rating,[5]; 0.2500 kg/ha,4.0
same,Preemergence herbicidal rating CASOB,[6]; rate 0.0313 kg/ha,0.0
same,Preemergence herbicidal rating CASOB,[6]; rate 0.0625 kg/ha,0.0
same,Preemergence herbicidal rating CASOB,[6]; rate 0.1250 kg/ha,0.0
same,Preemergence herbicidal rating CASOB,[6]; rate 0.2500 kg/ha,1.0
same,ORYSAT herbicidal rating,[7]; rate 0.0158 kg/ha,3.0
same,ORYSAT herbicidal rating,[7]; rate 0.0315 kg/ha,3.5
same,ORYSAT herbicidal rating,[7]; rate 0.0630 kg/ha,4.0
same,Preemergence herbicidal rating SETVI,[8]; rate 0.0156 kg/ha,0.0
same,Preemergence herbicidal rating SETVI,[8]; rate 0.0313 kg/ha,0.0
same,Preemergence herbicidal rating SETVI,[8]; rate 0.0625 kg/ha,0.0
same,Preemergence herbicidal rating SETVI,[8]; rate 0.1250 kg/ha,0.0
same,Preemergence herbicidal rating SETVI,[8]; rate 0.2500 kg/ha,6.0
same,ABUTH herbicidal rating,[9]; rate 0.0158 kg/ha,7.0
same,ABUTH herbicidal rating,[9]; rate 0.0315 kg/ha,9.0
same,ABUTH herbicidal rating,[9]; rate 0.0630 kg/ha,9.0
same,ECHCG herbicidal rating,[10]; rate 0.0158 kg/ha,1.0
same,ECHCG herbicidal rating,[10]; rate 0.0315 kg/ha,1.0
same,ECHCG herbicidal rating,[10]; rate 0.0630 kg/ha,1.0
same,Herbicidal rating SAGPY,[11]; Rate 0.0313 kg/ha,0.0
same,Herbicidal rating SAGPY,[11]; Rate 0.0625 kg/ha,0.0
same,Herbicidal rating SAGPY,[11]; Rate 0.1250 kg/ha,2.0
same,Herbicidal rating SAGPY,[11]; Rate 0.2500 kg/ha,4.0
same,GLXMAW herbicidal rating,[12]; rate 0.0158 kg/ha,4.0
same,GLXMAW herbicidal rating,[12]; rate 0.0315 kg/ha,4.5
same,GLXMAW herbicidal rating,[12]; rate 0.0630 kg/ha,5.5
same,AMBEL herbicidal rating,[13]; rate 0.0158 kg/ha,7.0
same,AMBEL herbicidal rating,[13]; rate 0.0315 kg/ha,7.0
same,AMBEL herbicidal rating,[13]; rate 0.0630 kg/ha,9.0
